# What was measured:
# [1] = test system: Stellaria media, Amaranthus retroflexus, Sinapis avreuse, Avena fatura, Lolium multiflorum and Setaria viridis; assay: Post-emergence action against weeds (greenhouse pot test, visual rating); type: in vivo; conditions: three-leaf stage, application rate of 3.0 kg or less of active substance per hectare, 3 to 4 weeks in greenhouse
# Method: Seeds of mono- and dicotyledonous weeds are placed in sandy loam soil in cardboard pots, covered with soil and cultivated in a greenhouse under good growth conditions. Two to three weeks after sowing, the test plants are treated at the three-leaf stage. The novel compounds, formulated as wettable powders or emulsion concentrates, are sprayed in various dosages onto the green parts of the plant at an application rate of from 600 to 8001 of water/ha (converted), and, after the test plants have remained in the greenhouse for 3 to 4 weeks under optimum growth conditions, the action of the preparations is rated visually by comparison with untreated controls. The novel compositions also have good post-emergence herbicidal activity against a broad spectrum of economically important weed grasses and broad-leaved weeds.
# [2] = test system: Stellaria media, Amaranthus retroflexus, Sinapis avreuse, Avena fatura, Lolium multiflorum and Setaria viridis; assay: Pre-emergence action against weeds (greenhouse pot test, visual rating); type: in vivo; conditions: application rate of 3.0 kg or less of active substance per hectare, trial period of 3 to 4 weeks
# From the text: Seeds of mono- and dicotyledonous weed plants are placed in sandy loam soil in cardboard pots and covered with soil. The novel compounds, formulated as wettable powders or emulsion concentrates, are then applied to the surface of the soil cover in the form of an aqueous suspension or emulsion at an application rate of from 600 to 800 l of water/ha (converted), in various dosages. After the treatment, the pots are placed in a greenhouse and kept under good growth conditions for the weeds. After the test plants have emerged after a trial period of 3 to 4 weeks, the damage to the plants or the negative effect on emergence is rated visually by comparison with untreated controls. As shown by the test results, the novel compounds have good herbicidal pre-emergence activity against a broad spectrum of weed grasses and broad-leaved weeds.
Compound,herbicidal activity post-emergence (rated visually) [1],"herbicidal activity pre-emergence (damage to the plants or negative effect on emergence, rated visually) [2]"
CC(C)c1nc(N)nc(NCCOC(=O)c2ccccc2Cl)n1 [Example 20],good and in most cases very good herbicidal activity,
CCC(COC(=O)c1ccc(F)cc1Cl)Nc1nc(N)nc(C(C)C)n1 (stereo not shown) [Example 23],good and in most cases very good herbicidal activity,
Cc1ccccc1C(=O)OCCNc1nc(N)nc(C(C)C)n1 [Example 43],good and in most cases very good herbicidal activity,
Cc1cc(C)cc(COCC(C)Nc2nc(N)nc(C(C)(C)F)n2)c1 (stereo not shown) [Example 64],,good and in most cases very good herbicidal activity
CC(COCc1cccc(Br)c1)Nc1nc(N)nc(C(C)(C)F)n1 (stereo not shown) [Example 76],,good and in most cases very good herbicidal activity
CC(COC(=O)c1cccc(C(F)(F)F)c1)Nc1nc(N)nc(C(C)C)n1 (stereo not shown) [Example 78],good and in most cases very good herbicidal activity,good and in most cases very good herbicidal activity
CC(C)c1nc(N)nc(NCCOC(=O)c2cccc(C(F)(F)F)c2)n1 [Example 80],good and in most cases very good herbicidal activity,
CC(COCc1ccc(Cl)cc1)Nc1nc(N)nc(C(C)(C)F)n1 (stereo not shown) [Example 167],,good and in most cases very good herbicidal activity
CCCCc1ccc(C(=O)OCC(C)Nc2nc(N)nc(C(C)C)n2)cc1 (stereo not shown) [Example 184],good and in most cases very good herbicidal activity,
Cc1cc(C)cc(OCCC(C)Nc2nc(N)nc(C(C)(C)F)n2)c1 (stereo not shown) [Example 282],,good and in most cases very good herbicidal activity
CC(CCOc1cc(F)cc(F)c1)Nc1nc(N)nc(C(F)(F)C(F)F)n1 (stereo not shown) [Example 297],good and in most cases very good herbicidal activity,good and in most cases very good herbicidal activity
CCC(CCOc1cc(F)cc(F)c1)Nc1nc(N)nc(C(C)C)n1 (stereo not shown) [Example 305],good and in most cases very good herbicidal activity,good and in most cases very good herbicidal activity
Cc1cc(C)cc(OCCC(C)Nc2nc(N)nc(C(F)(F)C(F)F)n2)c1 (stereo not shown) [Example 329],,good and in most cases very good herbicidal activity
Cc1cc(C)cc(OCCC(C)Nc2nc(N)nc(C(C)C)n2)c1 (stereo not shown) [Example 339],,good and in most cases very good herbicidal activity
CCC(CCCOc1ccccc1)Nc1nc(N)nc(C(C)(C)F)n1 (stereo not shown) [Example 490],good and in most cases very good herbicidal activity,good and in most cases very good herbicidal activity
CC(CCCOc1ccccc1)Nc1nc(N)nc(C(C)(C)F)n1 (stereo not shown) [Example 501],good and in most cases very good herbicidal activity,good and in most cases very good herbicidal activity
Cc1cccc(OCCCC(C)Nc2nc(N)nc(C(C)(C)F)n2)c1 (stereo not shown) [Example 502],good and in most cases very good herbicidal activity,good and in most cases very good herbicidal activity
CCC(CCCOc1ccccc1)Nc1nc(N)nc(C(C)C)n1 (stereo not shown) [Example 510],good and in most cases very good herbicidal activity,good and in most cases very good herbicidal activity

Compound,herbicidal activity post-emergence (rated visually) [1],"herbicidal activity pre-emergence (damage to the plants or negative effect on emergence, rated visually) [2]"
CC(C)(F)c1nc(N)nc(NC(CCCOc2ccccc2)C2CC2)n1 (stereo not shown) [Example 528],good and in most cases very good herbicidal activity,good and in most cases very good herbicidal activity
CC(CCCOc1ccccc1)Nc1nc(N)nc(C(C)C)n1 (stereo not shown) [Example 531],good and in most cases very good herbicidal activity,good and in most cases very good herbicidal activity
Cc1cccc(OCCCC(C)Nc2nc(N)nc(C(C)F)n2)c1 (stereo not shown) [Example 532],good and in most cases very good herbicidal activity,good and in most cases very good herbicidal activity
CCC(CCCOc1cccc(C)c1)Nc1nc(N)nc(C(C)C)n1 (stereo not shown) [Example 553],good and in most cases very good herbicidal activity,good and in most cases very good herbicidal activity
CC(C)c1nc(N)nc(NC(CCCOc2ccccc2)C2CC2)n1 (stereo not shown) [Example 554],good and in most cases very good herbicidal activity,good and in most cases very good herbicidal activity
Cc1cccc(OCCCC(Nc2nc(N)nc(C(C)(C)F)n2)C2CC2)c1 (stereo not shown) [Example 582],good and in most cases very good herbicidal activity,good and in most cases very good herbicidal activity
CCC(CCCCOc1ccccc1)Nc1nc(N)nc(C(C)(C)F)n1 (stereo not shown) [Example 598],good and in most cases very good herbicidal activity,good and in most cases very good herbicidal activity
CCC(CCCCOc1ccccc1)Nc1nc(N)nc(C(F)(F)C(F)F)n1 (stereo not shown) [Example 605],good and in most cases very good herbicidal activity,good and in most cases very good herbicidal activity
CC(CCCCOc1ccccc1)Nc1nc(N)nc(C(C)(C)F)n1 (stereo not shown) [Example 609],good and in most cases very good herbicidal activity,good and in most cases very good herbicidal activity
CCCc1nc(N)nc(NC(CC)CCCCOc2ccccc2)n1 (stereo not shown) [Example 618],good and in most cases very good herbicidal activity,good and in most cases very good herbicidal activity
CC(CCCCOc1ccccc1)Nc1nc(N)nc(C(C)F)n1 (stereo not shown) [Example 626],good and in most cases very good herbicidal activity,good and in most cases very good herbicidal activity
CC(C)(F)c1nc(N)nc(NC(CCCCOc2ccccc2)C2CC2)n1 (stereo not shown) [Example 636],good and in most cases very good herbicidal activity,good and in most cases very good herbicidal activity
Nc1nc(NC(CCCCOc2ccccc2)C2CC2)nc(C(F)(F)C(F)F)n1 (stereo not shown) [Example 645],good and in most cases very good herbicidal activity,good and in most cases very good herbicidal activity
CC(F)c1nc(N)nc(NC(CCCCOc2ccccc2)C2CC2)n1 (stereo not shown) [Example 681],good and in most cases very good herbicidal activity,good and in most cases very good herbicidal activity
CC(CCCCOc1ccccc1)Nc1nc(N)nc(C(F)(F)C(F)F)n1 (stereo not shown) [Example 696],good and in most cases very good herbicidal activity,good and in most cases very good herbicidal activity
CC(C)(F)c1nc(N)nc(NC2CCCCC2COc2ccccc2)n1 (stereo not shown) [Example 869],good and in most cases very good herbicidal activity,good and in most cases very good herbicidal activity
CC(F)c1nc(N)nc(NC2CCCCC2COc2ccccc2)n1 (stereo not shown) [Example 870],good and in most cases very good herbicidal activity,good and in most cases very good herbicidal activity
Cc1cccc(CNC(=O)C(C)Nc2nc(N)nc(C(C)(C)F)n2)c1 (stereo not shown) [Example 926],good and in most cases very good herbicidal activity,good and in most cases very good herbicidal activity
